Measurements as given in US9468615B2, “Use of malononitrilamides in neuropathic pain” (AL-GIAX Pharmaceuticals GMBH, priority 2010, dated 2016).

Tests used:
[1] = test system: severe spinal cord contusion injury in the rat; assay: Acetone test (cold chemical stimulus) after severe spinal cord contusion injury, treatment DPO 28-35; format: in vivo; settings: 10 mg/kg/day by gavage DPO 28 till DPO 35
Procedure: (§1) Thirteen week-old female Lewis rats (Charles River, Sulzfeld Germany) were housed under a 12:12 h dark/light regime and allowed free access to water and food. After one week of habituation the animals underwent general anesthesia with a mixture of isoflurane and air (induction: 5% isoflurane, maintenance: 2.2% isofluorane). A Th10 laminectomy was performed without rupturing the dura and a severe contusive SCI (25 gem NYU/MASCIS II impactor) (Gruner, 1992 #3) was induced. After suturing muscle and skin, a subcutaneous (s.c.) injection of 5 ml of Ringers Lactate was given. Bladders were emptied manually 2 times a day until spontaneous voiding returned (usually within 1 week). The lesion severity was verified by the impact velocity and contusion depth of the impactor rod. Animals with an impact velocity error >5% were excluded from further analysis. After injury, individual rats were randomly assigned into a treatment group. The following groups were used:
(§2) Group 2: SCI+HR 325 (10 mg/kg/day) in vehicle by gavage for 7 days, from DPO 28 till DPO 35
(§3) Group 3: SCI+FK 778 (10 mg/kg/day) in vehicle by gavage for 7 day, from DPO 28 till DPO 35
A slightly modified method of De la Calle and colleagues (De la Calle et al., 2002) was used for the determination of the reactivity to a cold chemical stimulus. The rat was placed in acrylic cages on top of a wire mesh grid, which allowed access to the paws, and acetone was applied to the plantar surface of the hind paw. To do this, 100 μl of acetone was sprayed onto the plantar surface of the rat's hind leg from below the grid with a syringe holding 2.5 ml. The time spent with the leg withdrawn from floor during the 60 s following exposure to acetone was recorded. Both hind legs were tested in each animal with an interval of 5-10 min between each test. The average reaction time between the two legs was taken for further analysis. A minimal value of 1 s was assigned to convey a fast or brisk reaction, while 0 was assigned if there was no reaction at all. This acetone test has been described as composing of cold, chemical, and possibly mechanical stimulation.

[2] = test system: severe spinal cord contusion injury in the rat; assay: Mechanical sensitivity (von Frey, Up-Down) after severe spinal cord contusion injury, treatment DPO 28-35; format: in vivo; settings: for withdrawal threshold (50% threshold force): DPO 28, before start of treatment (group baseline), 15 grams before injury, vehicle group 2.7
Procedure: as §1
The mechanical sensitivity response was measured as the direct pressure stimulus required eliciting foot withdrawal in nonrestrained conditions. All tests were conducted in the morning between 7:30 and 10:30 am and the person performing the behavioral tests was blinded to the experimental groups. Animals were habituated to the testing apparatus for at least 20 min before testing. Each animal was subjected to the stimulation of a series of von Frey filaments ranging from 0.4 to 15 g (log force 3.61, 3.84, 4.08, 4.31, 4.56, 4.74, 4.93 and 5.18) using the Up-Down paradigm according to Chaplan (Chaplan et al., 1994). The selected von Frey filament was pressed against the plantar surface of the hind paw to the point of 30° bending for 3 s. Paw withdrawal response was considered as the positive response. The 50% threshold force needed for paw withdrawal was calculated for both hind paws of each rat and the mean value of both hind paws was used to represent the mechanical sensitivity of this animal.
as §2, §3

[3] = test system: spinal cord contusion injury; assay: Mechanical sensitivity (von Frey, Up-Down), chronic central neuropathic pain three months after spinal cord contusion injury, treatment DPO 84-91; format: in vivo, rat; settings: DPO 28, before treatment (group baseline, stable up to DPO 84); 15 grams before injury; vehicle group 3.2
Procedure: as §1, with “used: The mechanical sensitivity response was measured as the direct pressure stimulus required eliciting foot withdrawal in nonrestrained conditions. […] The 50% threshold force needed for paw withdrawal was calculated for both hind paws of each rat and the mean value of both hind paws was used to represent the mechanical sensitivity of this animal. […]” for “used:”

[4] = test system: partial ligation of the sciatic nerve; assay: Mechanical sensitivity (von Frey, Up-Down) after partial ligation of the sciatic nerve; format: in vivo, rat; settings: DPO 21, after daily oral 10 mg/kg DPO 14 till DPO 21; 60 grams before injury, 19 grams at DPO 14 before treatment; FIG. 8
Procedure: The mechanical sensitivity response was measured as the direct pressure stimulus required eliciting foot withdrawal in nonrestained conditions. Animals were habituated to the testing apparatus for at least 20 min before testing. Each animal was subjected to the stimulation of a series of von Frey filaments ranging from 1.0 to 60 g using the Up-Down paradigm according to Chapter (Chaplan et al., 1994). The selected von Frey filament was pressed against the plantar surface of the hind paw to the point of 30° bending for 3 s. Paw withdrawal response was considered as the positive response. The 50% threshold force needed for paw withdrawal was calculated for both hind paws of each rat. The methods of Seltzer et al. (1990) were followed. The dorsum of the sciatic nerve was carefully freed from surrounding connective tissues at a site near the trochanter just distal to the point at which the posterior biceps semitendinosus nerve branches off the common sciatic nerve. The nerve was fixed in its place by pinching the epineurium on its dorsal aspect, taking care not to press the nerve against underlying structures. An 8-0 (Polyamide 6) suture was inserted into the nerve and tightly ligated so that the dorsal ⅓-½ of the nerve thickness was trapped in the ligature (Seltzer et al., 1990). […]

## C#CCCC(O)=C(C#N)C(=O)Nc1ccc(C(F)(F)F)cc1 [FK-778, N-(4-trifluoromethyl)-phenyl-2-cyano-3-hydroxy-hept-2-en-6-in-carboxylic acidamide]
[1]
  reversal of cold allodynia after experimental spinal cord injury (conclusion): able to reverse cold allodynia
[1]; DPO 35, one-way ANOVA p<0.01, FIG. 3
  duration of response to acetone exposure vs vehicle controls: responded significantly shorter
[1]; DPO 56, ANOVA p<0.001, Bonferroni post-hoc
  duration of response to acetone exposure vs vehicle controls: responded significantly shorter
[1]; end of experiment DPO 70, p<0.01
  duration of response to acetone exposure, differences to vehicle controls: differences remained unchanged
[2]; 10 mg/kg/day by gavage DPO 28 till DPO 35
  reversal of mechanical allodynia after experimental spinal cord injury (conclusion): able to reverse mechanical allodynia
[2]
  withdrawal threshold (50% threshold force): 3.1 grams
[2]; DPO 35, 10 mg/kg/day by gavage DPO 28 till DPO 35, one-way ANOVA p<0.001, FIG. 2
  withdrawal threshold vs vehicle control animals: significantly higher
[2]; end of experiment DPO 77, 10 mg/kg/day by gavage DPO 28 till DPO 35, p<0.001
  withdrawal threshold, difference to vehicle controls: statistically significant difference between the treated animals and the vehicle controls remained

## Cc1cc(NC(=O)/C(C#N)=C(\O)C2CC2)ccc1C(F)(F)F [HR-325, 1(3-methyl-4-trifluoromethylphenyl-carbamoyl)-2-cyclopropyl-2oxo-propionitrile]
[3]
  withdrawal threshold (50% threshold force): 2.7 grams
[4]
  withdrawal threshold in the ipsilateral paw: 54 grams
[2]
  withdrawal threshold (50% threshold force): 3.0 grams
